Common to all, as to type: cell-based
The subject of assay [1] is fucosylation of antibodies. Briefly: Percentage of nonfucosylated antibodies for antibodies grown in the presence of fucosylation inhibitors (FIG. 2A). The settings on record: antibodies grown in presence of inhibitor at 1 mM to 6 mM. On the procedure: The level of fucosylation in an antibody preparation may be determined by any method known in the art, including but not limited to gel electrophoresis, liquid chromatography, and mass spectrometry. Unless otherwise indicated, for the purposes of the present invention, the level of fucosylation in an antibody preparation is determined by hydrophilic interaction chromatography (or hydrophilic interaction liquid chromatography, HILIC), essentially as described at Example 2. To determine the level of fucosylation of an antibody preparation, samples are denatured treated with PNGase F to cleave N-linked glycans, which are then analyzed for fucose content. LC/MS of full-length antibody chains is an alternative method to detect the level of fucosylation of an antibody preparation, but mass spectroscopy is inherently less quantitative.
Nonfucosylated antibody preparations may be analyzed to determine the percentage of afucosylated heavy chains essentially as follows.
Antibodies are first denatured using urea and then reduced using DTT (dithiothreitol). Samples are then digested overnight at 37° C. with PNGase F to remove N-linked glycans. […] The resulting labeled glycans are then resolved on a HILIC column and the eluted fractions are quantified by fluorescence and dried. […] Untreated samples and BKF-treated samples are then analyzed by liquid chromatography. […]

Assay [2] concerns antibody production cell line. Put plainly: Antibody titers of the same antibody preparations (FIG. 2B). As to conditions: same preparations as FIG. 2A, inhibitor 1 mM to 6 mM, compared with GDP-D-rhamnose.
The subject of assay [3] is fucosylation of antibodies. Briefly: Electropherograms of antibody preparations, glycoform peaks (FIGS. 3A-3C). As to conditions: cells cultured with 6 mM or 10 mM inhibitor vs no inhibitor. As to the method:
FIGS. 3A, 3B and 3C show electropherograms of antibody preparations made using cells cultured without a fucosylation inhibitor or in the presence of 6 mM or 10 mM Ac-GDP-D-rhamnose, respectively. Peaks for different glycoforms are indicated, with white boxes for fucosylated species and dark boxes for nonfucosylated species.

Consider `C[C@H]1O[C@H](OP(=O)(O)OP(=O)(O)OC[C@H]2O[C@@H](n3cnc4c(=O)[nH]c(N)nc43)[C@H](O)[C@@H]2O)[C@@H](O)[C@@H](O)[C@@H]1O` [GDP-D-rhamnose], for which the “percentage of nonfucosylated antibodies” value in assay [1] is recorded as “increasing the percentage of nonfucosylated antibodies”.

For the molecule Ac-GDP-D-rhamnose, in assay [1], the “percentage of nonfucosylated antibodies” value is “as effective as GDP-D-rhamnose”. In addition, in assay [2], the “antibody titer (yield)” value is “less deleterious effect on titer”. Moreover, the “proportion of nonfucosylated species (glycoforms)” value in assay [3] is given as “increase the proportion of nonfucosylated species”.

The record behind these values is patent publication US20230075422A1, “USE OF FUCOSYLATION INHIBITOR FOR PRODUCING AFUCOSYLATED ANTIBODY” (BRISTOL-MYERS SQUIBB COMPANY, priority 2019, published 2023).
